Assay results from US9358300B2, “Transfection reagents” (LIFE TECHNOLOGIES CORPORATION, priority 1998, dated 2016).

Test system: Primary, passaged, normal human fibroblasts (NHFs)
Experiment: Transfection of normal human fibroblasts with pCMV SPORT-β-gal DNA, β-gal activity
Type: cell-based
Conditions: 40 ng pCMV SPORT-β-gal DNA and 0.1 or 0.2 μl lipid per well, ND = no detectable activity
Description: The cationic lipid reagents and DNA were diluted separately into 25µl aliquots of serum-free DMEM, containing 1% NEAA. For LIPOFECTAMINE® PLUS, 7 14 μl of PLUS reagent was added to the DNA, mixed, and incubated for 15 minutes at room temperature. The diluted DNA was combined with the diluted lipid and incubated at room temperature for at least 15 minutes to allow the DNA and the lipid to form complexes. Following this incubation the complexes were added directly into the culture medium dropwise and mixed by rocking the culture plate back and forth. The cells were further incubated at 37° C. for a total of 24 hours to allow expression of the lacZ transgene encoded by the reporter plasmid, pCMV SPORT-β-gal. At 24 hours post-transfection, the growth medium and transfection complexes were removed from the wells, and the cells in each well were rinsed briefly with 1 ml of D-PBS (Dulbecco's PBS, Life Technologies, Rockville, Md.). The cells in each well were lysed by the addition of 0.15 to 2.0 ml of […]. The plates were frozen at −80° C. for a minimum of 2 hours, and thawed at room temperature or 37° C. The thawed cell lysates were cleared by centrifugation and the supernatants were assayed for β-gal activity using the enzymatic substrate ONPG. The concentration of total protein in cell lysates was also determined using a Bradford assay (Bio-Rad Laboratories, Hercules Calif.). β-gal activity in transfected cell extracts was calculated against a standard curve and expressed as ng β-gal per surface area of tissue culture plate (ng/cm2) to reflect activity per transfection, or as ng β-gal per μg of total protein (ng/μg) to reflect specific activity.
Primary, passaged, normal human fibroblasts (NHFs) were plated in 96-well plates at a density of 1.6×104 cells per well and transfected the following day. Cells in each well were transfected with 40 ng pCMV SPORT-β-gal DNA and 0.1 or 0.2 μl lipid.
The DNA and lipid were diluted separately into 10 μl of DMEM. The DNA was either used alone or pre-mixed with PLUS, insulin, transferrin, or an integrin-targeting peptide prior to complexing with the lipid. After 15 minutes of complexing, the DNA-lipid was added to cells. Cells were assayed for p-gal activity as described above.

Which “ACTIVITY (β-gal), DNA and PLUS” value (DNA pre-mixed with PLUS Reagent) does the source give for “N^1,N^4-dioleyl-N^1,N^4-di-[2-hydroxy-3-(N-spermine carboxamido)-aminopropyl]-diaminobutane [Compound of Formula VII]” here?
Its value is 637.9 ng/βgal/cm^2.

What about the “ACTIVITY (β-gal), DNA and INSULIN” value (DNA pre-mixed with insulin) of the same substance?
The value was 195.7 ng/βgal/cm^2.

And the “ACTIVITY (β-gal), DNA and INTEGRIN-TARGETING PRPTIDE” value (DNA pre-mixed with integrin-targeting peptide)?
The value was 587.9 ng/βgal/cm^2.

What about the “ACTIVITY (β-gal), DNA and TRANSFERRIN” value (DNA pre-mixed with transferrin) of the same substance?
Its value is 21.7 ng/βgal/cm^2.

What about the “ACTIVITY (β-gal), DNA” value (DNA used alone) of the same substance?
The value was 29.4 ng/βgal/cm^2.
